Laboratory results from US9181318B2, “Method of screening a drug such as insulin secretagogue” (JNC Corporation, priority 2009, dated 2015).

Tested on: insulin-GLase-expressed MIN6 cells (mouse pancreatic β cells)
Assay: Secretion of insulin-GLase fusion protein from transformed MIN6 cells, luminescence (luciferase) activity in the medium
Type: cell-based
Conditions: glibenclamide in low glucose-modified KRHB buffer; aliquots taken 0-30 minutes; control 2 mM glucose; FIG. 9
Description: Mouse pancreatic β cells, MIN6 strains, were cultured in high glucose DMEM (manufactured by Sigma) supplemented with 10% fetal calf serum (manufactured by Invitrogen) and 50 μM of 2-mercaptoethanol. The expression vector obtained in EXAMPLE 1-1 was transfected to the MIN6 cell line using LipofectAMINE 2000 (manufactured by Invitrogen). After the transfection, the cells were incubated in a CO2 incubator at 37° C. for 24 hours. The secretion expression of the fusion Gaussia luciferase protein in the transformant was confirmed by measuring the luminescence activity with a Luminometer AB2200 (manufactured by Atto Corporation) using coelenterazine as a luminescent substrate, in accordance with the method described in Biochem. Biophys. Res. Commun., 365, 96-101 (2007). As a result, the luminescence activity in the cultured medium by high glucose (20 mM glucose) stimulation to the transformed MIN6 cells increased by about 7 times as compared to that prior to the treatment (FIG. 1). […] Glibenclamide, which is a sulfonylurea type hypoglycemic agent, promotes the secretion of endogenous insulin to lower blood glucose levels. This promotion of insulin secretion was examined using the insulin-GLase-expressed MIN6 cells to assess the effect. […]

With `COc1ccc(Cl)cc1C(=O)NCCc1ccc(S(=O)(=O)NC(=O)NC2CCCCC2)cc1` [glibenclamide, Glibenclamide] the “insulin secretion (luciferase activity of secreted insulin-GLase)” value was “promoted”.
